System: electron transport system of SMP (sub-mitochondrial particle)
Assay: pH change caused by SMP after contact with the sample and addition of NADH as external electron donor
Type: biochemical
Details: for pH change rate: control about 0.17 per minute
Experimental: First of all, a large quantity of SMPs were prepared by sonicating mitochondria.
Thereafter, the test tubes 1 to 3 were prepared, wherein 10 ml of a 2 mM KCl solution (control solution) was added to the test tube 1, 10 ml of 10% ethanol dissolved in the control solution was added to the test tube 2, and 10 ml of 20% ethanol dissolved in the same was added to the test tube 3. SMPs prepared above were added to each test tube at a final concentration of 1.4 mg/ml.
Next, 0.1 mM of NADH that acts as an external electron donor was added to each test tube at the same time, and the pH change in each test tube was measured for 5 minutes by using a pH meter.
In order to examine whether the method of the present invention is sensitive to only a toxic substance, the experiment was carried out according to the same method as described in Example 1 except that the sample prepared by dissolving 20% sorbitol in a 2 mM KCl solution was used.

SMILES	pH change rate (10% ethanol (FIG. 5))	pH increase for 5 minutes (10% ethanol in 2 mM KCl, SMP 1.4 mg/ml, 0.1 mM NADH, pH meter, control increased about 0.9)	pH change for 5 minutes (20% ethanol in 2 mM KCl, SMP 1.4 mg/ml, 0.1 mM NADH, pH meter)	pH change rate (20% ethanol, the relatively strong toxic substance (FIG. 5))	pH change compared with control (20% sorbitol in 2 mM KCl, SMP 1.4 mg/ml, 0.1 mM NADH, 5 minutes)
CCO [ethanol]	lower than 0.1 per minute	about 0.4	almost no pH change	lower than 0.02 per minute	–
OC[C@@H](O)[C@@H](O)[C@H](O)[C@@H](O)CO [sorbitol]	–	–	–	–	almost identical to that of a control

— patent publication US20070231919A1, “Method for detecting the effect of a toxic substance using sub-mitochondrial particle” (SAMSUNG ELECTRONICS CO., LTD., priority 2005, published 2007)
